Results: patent US10266548B2, “Substituted benzylindazoles for use as Bub1 kinase inhibitors in the treatment of hyperproliferative diseases” (Bayer Intellectual Property GmbH, priority 2011, dated 2019)
Like-named read-outs stand apart in the source and are kept apart here.

Legend:
HeLa cells = test: Proliferation assay (HeLa cell line); format: cell-based; details: 4 days, crystal violet, read-out: Biological Assay 2: Proliferation assay (HeLa cell line) median IC50
[1] = target: catalytic domain of human Bub1 (amino acids 704-1085) (Homo sapiens (Human), UniProt O43683); test: Bub1 kinase assay (TR-FRET); format: biochemical; details: 10 μM ATP, 1 μM peptide substrate; read-out: Biological Assay 1: Bub1 kinase assay median IC50
Chain of catalytic domain of human Bub1 (amino acids 704-1085) (O43683 704-1085): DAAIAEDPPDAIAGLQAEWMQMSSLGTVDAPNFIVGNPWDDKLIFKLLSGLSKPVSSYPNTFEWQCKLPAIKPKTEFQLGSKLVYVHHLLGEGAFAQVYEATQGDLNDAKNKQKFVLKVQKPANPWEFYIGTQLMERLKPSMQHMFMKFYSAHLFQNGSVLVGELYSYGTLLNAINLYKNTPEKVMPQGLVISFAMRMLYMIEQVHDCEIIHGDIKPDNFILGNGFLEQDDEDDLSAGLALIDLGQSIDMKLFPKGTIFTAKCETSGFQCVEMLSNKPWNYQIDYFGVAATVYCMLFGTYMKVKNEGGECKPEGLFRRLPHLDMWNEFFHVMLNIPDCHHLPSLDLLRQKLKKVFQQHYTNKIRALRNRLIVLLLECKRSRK
Procedure, shortened: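 Phosphoserine product detected by TR-FRET (Eu-labeled anti-mouse IgG/anti-phosphoserine antibody to streptavidin-XL665) after 1 h at 22 °C. IC50 from 4-parameter logistic fit.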

Caco2 cells = test: Proliferation assay (Caco2 cell line); format: cell-based; details: Caco2, 4 days, crystal violet, read-out: Biological Assay 2: Proliferation assay (Caco2 cell line) median IC50
Procedure: (§1) Cultivated tumor cells (cells were ordered from ATCC, except HeLa-MaTu and HeLa-MaTu-ADR, which were ordered from EPO-GmbH, Berlin) were plated at a density of 1000 to 5000 cells/well, depending on the growth rate of the respective cell line, in a 96-well multititer plate in 200 μL of their respective growth medium supplemented 10% fetal calf serum. After 24 hours, the cells of one plate (zero-point plate) were stained with crystal violet (see below), while the medium of the other plates was replaced by fresh culture medium (200 μl), to which the test substances were added in various concentrations (0 μM, as well as in the range of 0.001-10 μM; the final concentration of the solvent dimethyl sulfoxide was 0.5%). The cells were incubated for 4 days in the presence of test substances. Cell proliferation was determined by staining the cells with crystal violet: the cells were fixed by adding 20 μl/measuring point of an 11% glutaric aldehyde solution for 15 minutes at room temperature. After three washing cycles of the fixed cells with water, the plates were dried at room temperature. The cells were stained by adding 100 μl/measuring point of a 0.1% crystal violet solution (pH 3.0). After three washing cycles of the stained cells with water, the plates were dried at room temperature. The dye was dissolved by adding 100 μl/measuring point of a 10% acetic acid solution. […] The change of cell number, in percent, was calculated by normalization of the measured values to the aborbtion values of the zero-point plate (=0%) and the absorbtion of the untreated (0 μm) cells (=100%). The IC50 values were determined by means of a 4 parameter fit using the company's own software.

NCI-H460 cells = test: Proliferation assay (H460 cell line); format: cell-based; details: H460, 4 days, crystal violet, read-out: Biological Assay 2: Proliferation assay (H460 cell line) median IC50
Procedure: as §1

DU145 cells = test: Proliferation assay (DU145 cell line); format: cell-based; details: DU145, 4 days, crystal violet, read-out: Biological Assay 2: Proliferation assay (DU145 cell line) median IC50
Procedure: as §1

B16F10 cells = test: Proliferation assay (B16F10 cell line); format: cell-based; details: B16F10, 4 days, crystal violet, read-out: Biological Assay 2: Proliferation assay (B16F10 cell line) median IC50
Procedure: as §1

MCF7 cells = test: Proliferation assay (MCF7 cell line); format: cell-based; details: Homo sapiens, 96 h; MCF7, 4 days, crystal violet; read-out: Biological Assay 2: Proliferation assay (MCF7 cell line) median IC50
Procedure: Cultivated tumor cells (cells were ordered from ATCC, except HeLa-MaTu and HeLa-MaTu-ADR, which were ordered from EPO-GmbH, Berlin) were plated at a density of 1000 to 5000 cells/well, depending on the growth rate of the respective cell line, in a 96-well multititer plate in 200 μL of their respective growth medium supplemented 10% fetal calf serum. After 24 hours, the cells of one plate (zero-point plate) were stained with crystal violet (see below), while the medium of the other plates was replaced by fresh culture medium (200 μl), to which the test substances were added in various concentrations (0 μM, as well as in the range of 0.001-10 μM; the final concentration of the solvent dimethyl sulfoxide was 0.5%). The cells were incubated for 4 days in the presence of test substances. Cell proliferation was determined by staining the cells with crystal violet: the cells were fixed by adding 20 μl/measuring point of an 11% glutaric aldehyde solution for 15 minutes at room temperature. […] Absorbtion was determined by photometry at a wavelength of 595 nm. The change of cell number, in percent, was calculated by normalization of the measured values to the aborbtion values of the zero-point plate (=0%) and the absorbtion of the untreated (0 μm) cells (=100%). The IC50 values were determined by means of a 4 parameter fit using the company's own software.

HeLa-MaTu-ADR cells = test: Proliferation assay (HeLa-MaTu-ADR cell line); format: cell-based; details: HeLa-MaTu-ADR, 4 days, crystal violet, read-out: Biological Assay 2: Proliferation assay (HeLa-MaTu-ADR cell line) median IC50
Procedure: as §1

IC50 (HeLa cells)	IC50 [1]	IC50 (Caco2 cells; Homo sapiens, Caco-2, 96 h)	IC50 (NCI-H460 cells; Homo sapiens, NCI-H460, 96 h)	IC50 (DU145 cells; Homo sapiens, DU-145, 96 h)	IC50 (B16F10 cells; Mus musculus, B16-F10, 96 h)	IC50 (MCF7 cells)	IC50 (HeLa-MaTu-ADR cells; 96 h)	IC50 (HeLa cells; Homo sapiens, 96 h)	IC50 (Caco2 cells)	IC50 (NCI-H460 cells)	IC50 (DU145 cells)	IC50 (B16F10 cells)	IC50 (HeLa-MaTu-ADR cells)	SMILES
2100 nM	4.6 nM	1200 nM	1400 nM	1700 nM	1100 nM	3100 nM	1200 nM	–	–	–	–	–	–	CCOc1cc(F)c(Cn2nc(-c3ncc(OC)c(Nc4ccncc4)n3)c3ccccc32)c(F)c1 [Example 2-5-1, 2-[1-(4-ethoxy-2,6-difluorobenzyl)-1H-indazol-3-yl]-5-methoxy-N-(pyridin-4-yl)pyrimidin-4-amine]
–	8.4 nM	2600 nM	2900 nM	2000 nM	990 nM	2000 nM	1200 nM	1600 nM	–	–	–	–	–	COC(=O)c1ccc(Cl)c(Cn2nc(-c3ncc(OC)c(Nc4ccncc4)n3)c3ccccc32)c1Cl [Example 2-16-1, methyl 2,4-dichloro-3-({3-[5-methoxy-4-(pyridin-4-ylamino)pyrimidin-2-yl]-1H-indazol-1-yl}methyl)benzoate]
–	200 nM	3000 nM	3000 nM	3000 nM	2400 nM	–	3000 nM	190 nM	–	–	–	–	–	CNC(=O)c1ccc(Cl)c(Cn2nc(-c3ncc(OC)c(Nc4ccncc4)n3)c3ccccc32)c1Cl [Example 20-1, 2,4-dichloro-3-({3-[5-methoxy-4-(pyridin-4-ylamino)pyrimidin-2-yl]-1H-indazol-1-yl}methyl)-N-methylbenzamide]
1200 nM	3.4 nM	–	–	–	–	–	–	–	600 nM	1100 nM	1300 nM	600 nM	1100 nM	CCOc1cc(F)c(Cn2nc(-c3ncc(OCC4CNCCO4)c(Nc4ccncc4)n3)c3ccccc32)c(F)c1 (stereo not shown) [Example 38-2]
–	19 nM	3300 nM	10000 nM	10000 nM	1800 nM	–	10000 nM	6000 nM	–	–	–	–	–	COc1cnc(-c2nn(Cc3c(Cl)ccc(NC(C)=O)c3Cl)c3ccccc23)nc1Nc1ccncc1 [Example 41-1, N-[2,4-dichloro-3-({3-[5-methoxy-4-(pyridin-4-ylamino)pyrimidin-2-yl]-1H-indazol-1-yl}methyl)phenyl]acetamide]
